According to patent US20260335282A1, “NOVEL 3-ARYLIDENE-2-INDOLINONE DERIVATIVES FOR THERAPEUTIC USE” (ISTANBUL UNIVERSITESI REKTORLUGU, priority 2022, published 2026):
Several values for one entry are separate records, joined by “and”; a condition that tells them apart may be missing. Equal values may be shown once. Read-outs that look alike come from different tables or passages of the source.

Assays:
Type in all cases: cell-based, human
HT-29 cells = test: MTT cytotoxicity, colon cancer cells HT-29; settings: MTT, no * mark (incubation time not specified)
From the text: (§1) The cytotoxicity, general tyrosine kinase inhibitory effects and cell death (apoptosis/necrosis) assays of 1-benzyl-3-(1H-indol-3-ylmethylidene)-1,3-dihydro-2H-indol-2-one derivatives (Formula 5) of the present invention are studied by the following methods. […] HUVEC (human umbilical vein endothelial cell), MCF-10F (human breast epithelial cell) and Beas2b (human lung bronchial epithelial cell) cell lines have been used as healthy control cells in MTT experiments.
(§2) Beas2b (human lung bronchiole epithelial cell) and HEK293 (renal tubule epithelium) cells used as normal cell lines were cultured in RPMI medium, and HUVEC (human umbilical cord endothelial cells) and MCF-10F (human breast epithelial cell) cells are cultured in DMEM medium containing 100 µg/ml penicillin/streptomycin. The cells, which covered 70% of the culture flask, are washed with phosphate buffer and then removed from the surface of the flask by application of trypsin-ethylenediamine tetraacetic acid (Trypsin-EDTA; 0.25%) solution, passaged, counted and seeded on appropriate plates before each experiment. Cells are treated with a total of 45 2-indolinone compounds (5) at concentrations of 0.1, 1, 5 and 10 μM. Stock compounds are prepared in 1 ml dimethylsulfoxide (DMSO) and 4 different dilutions were prepared with medium and performed to the cells. Control group cells are treated with DMSO at a similar concentration to the experimental groups.
(§3) MTT (3-(4,5-dimethylthiazol-2-yl)-2,5-diphenyl-2H-tetrazolium bromide) colorimetric assay provides quantitation of viable cells with ongoing mitochondrial activity in culture medium. According to the standard procedure in cell culture conditions, cells are maintained in RPMI-1640 and DMEM culture media containing 10% FBS and 1% penicillin/streptomycin. The trypan blue test is used for cell counts.
(§4) The effects of 45 2-indolinone compounds (5) on cell viability in all cancer cell lines are investigated by MTT assay. Cells are seeded in a 96-well flat bottom plate with 5000 cells in each well and 2-indolinone compounds (5) at concentrations of 0.1, 1, 5 and 10 μM are performed to the cells the next day. After 48 and/or 72 hours following treatment with 2-indolinone compounds, 50 μl of the supernatant is slowly discarded (as it was acid medium) and MTT at a concentration of 5 mg/ml is added to each well in a volume of 10 μl. After incubation for 4 hours, the formazan crystals formed in the wells are dissolved by adding 100 μl DMSO and the optical density is read at 570 nm test wavelength and 630 nm reference wavelength. Cell viability is expressed as % cell viability by comparing the absorbance of control and test wells. IC50 value is calculated from the dose-response curves prepared for each compound. In addition, the possible DMSO effect is eliminated by preparing negative control wells compatible with the amount of DMSO contained in the compounds. To understand the reaction of the compounds with MTT, cell-free (MTT+compounds) negative controls are prepared at the concentrations used (Mosmann, 1983). […] The absorbance values obtained are compared to the control and statistically evaluated by unpaired t-test using “Graphpad Prism 5.04” software. “P<0.05” is accepted as significant. When evaluating cytotoxic effects, the present inventors aim for the inventive compounds to be effective in cancer cells and ineffective in healthy cells. The inventive compounds have also been compared with sunitinib, one of the reference chemotherapy drugs currently used in treatment.

MDA-MB-231 cells = test: MTT cytotoxicity, breast cancer cells MDA-MB-231; settings: read-out: IC50, MDA-MB-231 (breast), MTT
From the text: as §1, §2, §3, §4
(§5) Among the compounds of the present invention, those that killed cancer cells by at least 50% (p<0.05) are selected and tested whether a 10-fold concentration of the M concentration at the IC50 value is toxic to normal healthy cells.

MCF-7 cells = test: MTT cytotoxicity, breast cancer cells MCF-7; settings: MTT
From the text: as §1, §2, §3, §4, §5

CAKI-1 cells = test: MTT cytotoxicity, kidney cancer cells CAKI-1
From the text: as §1, §2, §3, §4, §5

HUVEC cells = test: MTT cytotoxicity, healthy cells HUVEC; settings: for Selectivite Index, HUVEC (Table 2): HUVEC vs colon or pancreas cancer cells; for IC50: MTT
From the text: as §1, §2, §3, §4, §5

MIAPaCa-2 cells = test: MTT cytotoxicity, pancreas cancer cells MIAPaCa-2; settings: for IC50: MTT
From the text: as §1, §2, §3, §4

HCT-116 cells = test: MTT cytotoxicity, colon cancer cells HCT-116; settings: no * mark (incubation time not specified)
From the text: as §1, §2, §3, §4

A498 cells = test: MTT cytotoxicity, kidney cancer cells A498; settings: MTT
From the text: as §1, §2, §3, §4, §5

MCF-10F/Beas2b cells = test: MTT cytotoxicity, healthy cells MCF-10F/Beas2b; settings: for Selectivite Index, MCF-10F/Beas2b (Table 2): MCF-10F/Beas2b vs colon or pancreas cancer cells; for IC50: MTT
From the text: as §1, §2, §3, §4, §5

A549 cells = test: MTT cytotoxicity, lung cancer cells A549; settings: no * mark (incubation time not specified)
From the text: as §1, §2, §3, §4, §5

[1] = system: general tyrosine kinase activity in MIA PaCa-2 pancreas cancer cells; test: General tyrosine kinase activity (ELISA) in MIAPaCa-2 cells; settings: 72 hours, IC50 concentration
Description: Takara Universal Tyrosine Kinase Assay Kit is used to determine the effects of 11 2-indolinone compounds (Y1, Y2, Y3, Y4, Y5, Y8, […], […], Y21, Y23, 20C, 22C) on general tyrosine kinase activity in cancer cells. Cells are seeded in 6-well plates (4.10^5 cells/well) and the IC50 concentration of each selected molecule is performed to the cells for 48 or 72 hours. Cells in the control group are incubated with medium only. At the end of the incubation period, the cells in each well are washed with PBS and cells are removed from the wells using a cell scraper via 1 ml of the extraction buffer in the kit. The cell lysate is transferred to ependorf tubes and centrifuged at 10.000 g for 10 minutes at +4° C. and the supernatant is used as a sample for activity determination. After the extracts obtained from the control and experimental groups are diluted 1:25, 40 μl extracts is transferred to two wells in the 96-well plate in the kit. In addition, the standard solution in the kit is diluted according to the kit instructions and each concentration is transferred 40 μl into three wells. 10 μl of 40 mM ATP-2Na solution is added to all wells and the plate is incubated at 37° C. for 30 minutes. After incubation, all wells are washed 4 times with wash buffer. 100 μl of blocking solution is added to each well and incubated again at 37° C. for 30 minutes. After incubation, the liquid in the wells is discarded and 50 μl of anti-phosphotyrosine-HRP solution is added to each well and incubated at 37° C. for 30 minutes. The wells are washed again four times with wash buffer and 100 μl of HRP-substrate solution (TMBZ) is added to each well and incubated at 37° C. for 15 minutes. The reaction is finished by adding 100 μl of stop solution to each well and the optical density in each well is measured at 405 nm with a microplate reader (BioTek, USA). The tyrosine kinase activity in each sample is calculated from the standard curve obtained from the absorbance values of the standard solutions with the kit (Chan W Y, Lau P M, Yeung K W, Kong S K. The second generation tyrosine kinase inhibitor dasatinib induced eryptosis in human erythrocytes—An in vitro study. Toxicol Lett. 2018; 295:10-21). This activity is normalized compared to the control group by dividing by the amount of protein in each sample.
The effects of 11 2-indolinone compounds (Y1, Y2, Y3, Y4, Y5, Y8, Y14, Y21, Y23, 20C and 22C) having the structure of formula (5), which are prominent with their cytotoxicity in A498, MIAPaCa-2 and HCT-116 cancer cell lines and nontoxic properties in healthy cells, on general tyrosine kinase activity in cancer cells are determined.

[2] = *: effective 72 hours after incubation
[3] = no * mark (incubation time not specified)
[4] = no * mark (incubation time not given)

SMILES | IC50 (HT-29 cells) | IC50 (MCF-7 cells; [3]) | IC50 (CAKI-1 cells; [2]) | Selectivite Index, HUVEC (Table 2) (HUVEC cells; cancer line not given) | IC50 (HUVEC cells; [3]) | IC50 (MIAPaCa-2 cells; [3]) | IC50 (HCT-116 cells) | IC50 (A498 cells; [3]) | Selectivite Index, MCF-10F/Beas2b (Table 2) (MCF-10F/Beas2b cells; cancer line not given) | IC50 (MCF-10F/Beas2b cells; [3]) | IC50 (A549 cells) | IC50 (MDA-MB-231 cells; [4]) | IC50 (CAKI-1 cells; [3]) | IC50 (A498 cells; [2]) | IC50 (MCF-10F/Beas2b cells; [2]) | also measured
O=C1/C(=C\c2c[nH]c3ccccc23)c2cccc(F)c2N1Cc1ccc(F)cc1 [31C] | 3.95 µM | 7.1 µM | 9.14 µM | 3.23 and 1.72 | 1.26 µM | 0.73 µM | 0.39 µM | 2.85 µM | 11.33 and 6.05 | 4.42 µM | 3.64 µM | – | – | – | – | IC50 (MDA-MB-231 cells; [2]): 9.09 µM
O=C1/C(=C\c2c[nH]c3ccccc23)c2cccc(F)c2N1Cc1cccc(Cl)c1 [32C] | 1.65 µM | 3.86 µM | 8.76 µM | – | – | 1.35 µM | 4.31 µM | 8.26 µM | – | 1.35 µM | > 10 µM | 4.53 µM | – | – | – | IC50 (HUVEC cells; [2]): 1 µM
Cc1cccc(CN2C(=O)C(=Cc3c[nH]c4ccccc34)c3cccc(F)c32)c1 [34C] | > 10 µM | > 10 µM | – | – | 1.69 µM | > 10 µM | 0.64 µM | 3.64 µM | – | 4.1 µM | 4.7 µM | > 10 µM | 7.61 µM | – | – | –
Cc1ccc(CN2C(=O)/C(=C\c3c[nH]c4ccccc34)c3cccc(F)c32)cc1 [35C] | 1.01 µM | > 10 µM | – | – | 1.62 µM | 0.62 µM | 0.23 µM | – | – | 3.23 µM | 5.93 µM | > 10 µM | 4.5 µM | 3.09 µM | – | –
O=C1/C(=C\c2c[nH]c3ccccc23)c2cc(Cl)cc(Cl)c2N1Cc1ccccc1 [36C] | > 10 µM | > 10 µM | 4.01 µM | 4.87 | 2.24 µM | 0.46 µM | 2.51 µM | – | 7.83 | – | 2.35 µM | > 10 µM | – | 1.46 µM | 3.6 µM | –
Cc1ccc2c(c1)/C(=C/c1c[nH]c3ccccc13)C(=O)N2Cc1ccc(F)cc1 [45C] | > 10 µM | > 10 µM | 4.91 µM | 5.57 | 2.62 µM | > 10 µM | 0.47 µM | – | 6.14 | – | 2.22 µM | > 10 µM | – | 0.78 µM | 2.89 µM | –
Cc1ccc2c(c1)/C(=C/c1c[nH]c3ccccc13)C(=O)N2Cc1ccc(Cl)cc1 [47C] | > 10 µM | 5 µM | – | – | > 10 µM | > 10 µM | > 10 µM | – | – | – | 2.65 µM | > 10 µM | 4.66 µM | 0.9 µM | 2.6 µM | Selectivite Index (SI), HUVEC (Table 1) (HUVEC cells; HUVEC vs breast or kidney cancer cells, cancer line not given): > 11.11; Selectivite Index (SI), MCF-10F/Beas2b (Table 1) (MCF-10F/Beas2b cells; MCF-10F/Beas2b vs breast or kidney cancer cells, cancer line not given): 2.88
Cc1cccc(CN2C(=O)/C(=C\c3c[nH]c4ccccc34)c3cc(C)ccc32)c1 [48C] | 1.46 µM | – | 3.46 µM | – | 1.07 µM | 2.02 µM | 0.6 µM | – | – | 3.35 µM | 3 µM | > 10 µM | – | 0.73 µM | 3.35 µM | IC50 (MCF-7 cells; [2]): 3.96 µM
Cc1cccc(CN2C(=O)/C(=C\c3c[nH]c4ccccc34)c3ccccc32)c1 [50C] | 1.49 µM | – | – | 1.72 | 0.86 µM | 2.96 µM | 0.5 µM | – | 8.74 | 4.37 µM | 4.6 µM | 4.3 µM | 4.96 µM | 3.85 µM | – | IC50 (MCF-7 cells; [2]): 4.15 µM
Cc1ccc(CN2C(=O)/C(=C\c3c[nH]c4ccccc34)c3ccccc32)cc1 [Y21] | > 10 µM | 8.77 µM | – | 6.15 | 2.46 µM | 0.4 µM | 3.14 µM | 4.06 µM | > 25.00 | – | > 10 µM | > 10 µM | > 10 µM | – | – | selectivity index (MIAPaCa-2 cells; MCF-10F/Beas2b vs MIAPaCa-2): > 25; IC50 (MIAPaCa-2 cells): 0.4 µM; general tyrosine kinase activity compared to control [1]: significantly decreased
Cc1ccc(CN2C(=O)/C(=C\c3c[nH]c4ccccc34)c3cc(Cl)ccc32)cc1 [Y22] | > 10 µM | > 10 µM | – | – | 2.34 µM | 0.49 µM | 2.34 µM | > 10 µM | – | 1.1 µM | > 10 µM | > 10 µM | > 10 µM | – | – | –
Cc1ccc(CN2C(=O)/C(=C\c3c[nH]c4ccccc34)c3cc(F)ccc32)cc1 [Y25] | > 10 µM | – | 7 µM | – | 0.13 µM | 1.14 µM | 1.46 µM | 3.15 µM | – | 2.72 µM | 3.31 µM | 3.4 µM | – | – | – | IC50 (MCF-7 cells; [2]): 4.83 µM
